“And” between values parts separate entries of the source, which are not always exact repeats. Equal entries are not always repeated.
Key:
Type in all cases: in vivo, human
[1] = Reported lithium blood levels during prophylaxis therapy; conditions: study patients with good adherence to lithium prophylaxis therapy
Excerpt: To assess response to long-term lithium prophylaxis treatment in BPI disorder, we prepared a life chart with graphic depiction of lifetime clinical course for each of the BPI patients recruited before June 2012 (N=1761). This life chart included all manic, hypomanic, and depressive episodes with date of onset (year and month), duration, and severity (including the extent of functional disability, hospitalization, and the presence of psychotic features), all doses of and duration of treatment with psychotropics and mood stabilizers known have been prescribed, drug adherence recorded in medical chart for all visits at outpatient clinics, all recorded blood levels of mood stabilizers, and any adverse drug reactions. We depicted this information graphically, based on integrated information gathered from direct interview with patients and their family members, interviews with in-charge psychiatrists, and a thorough medical chart review. Based on this life chart, we determined whether individual patients had good drug adherence.
(§1) For patients in the second test of replication, we carried out regular follow-up evaluations (usually monthly and at least once every 3 months), including assay of lithium to assess drug adherence, and a SCAN interview to assess clinical condition, at outpatient clinics for at least 2 years.

[2] = test system: bipolar I (BPI) disorder patients; assay: Response to long-term lithium prophylaxis treatment, Alda Scale (retrospective, life chart; GWAS and replication groups)
Excerpt: We carried out a “discovery” GWAS, and two tests of replication. […] We genotyped each of the 1647 patients by array (see below).
To assess response to long-term lithium prophylaxis treatment in BPI disorder, we prepared a life chart with graphic depiction of lifetime clinical course for each of the BPI patients recruited before June 2012 (N=1761). […] We depicted this information graphically, based on integrated information gathered from direct interview with patients and their family members, interviews with in-charge psychiatrists, and a thorough medical chart review.
The phenotype of lithium response was assessed based on the life chart, using the Retrospective Criteria of Long-Term Treatment Response in Research Subjects with Bipolar Disorder developed by Martin Alda and Colleagues (Alda Scale). The Alda scale has two criteria. […] Criterion B (B1-B5, each rated as 0, 1 or 2 points) is used to establish whether there is a causal relationship between clinical improvement and the treatment. B1 and B2 indicate the recurrence risk off the lithium treatment [number (B1) and frequency (B2) of episodes]. B3 is a measure of the length of lithium treatment. B4 indicates compliance with lithium. B5 is a measure of concomitant psychotropic medication during periods of stability. The total score is obtained by subtracting the sum of the B scores from the A score.
In investigating a causal relationship between lithium treatment and clinical improvement of individual patients, it is important to ensure (i) comparability in clinical course between on-lithium and off-lithium periods (number, frequency and severity of episodes); (ii) satisfactory drug compliance, and (iii) the minimization of influence from additional medications (hypnotics, antidepressants, antipsychotics, and other mood stabilizers). We determined inclusion criteria accordingly, to minimize the misclassification of responders and non-responders.
See, e.g., Grof et al., J Clin Psychiatry 2002; 63:942-7; and Squassina et al, Pharmacogenomics 2011; 12:1559-69.

[3] = test system: bipolar I (BPI) disorder patients; assay: Follow-up study (second test of replication) of 24 patients on lithium monotherapy, Alda Scale; set-up: key to A − B (total score of Alda Scale): Alda total = A score minus sum of B1-B5 scores (each 0-2); conditions: for A − B (total score of Alda Scale): individual patients, follow-up 2-5 yrs
Excerpt: In a second test of replication, we genotyped an independent series of 24 patients who had received lithium monotherapy for at least 2 years, through May 2012. We based their inclusion on a life chart (see Phenotype Definition and Assessment below) constructed for all patients in the 1647-patient sample. Each of these 24 patients had good drug adherence to mood stabilizer(s) other than lithium prior to their commencement of lithium monotherapy but with unsatisfactory response.
The phenotype of lithium response was assessed based on the life chart, using the Retrospective Criteria of Long-Term Treatment Response in Research Subjects with Bipolar Disorder developed by Martin Alda and Colleagues (Alda Scale). The Alda scale has two criteria. Criterion A measures the extent of clinical improvement in illness activity and takes into account the frequency, duration, and severity of episodes during periods of lithium treatment considered adequate in duration and dosage, compared with the frequency, duration, and severity of episodes during periods off the lithium treatment, on a scale from 0 (no change, or exacerbation of disease severity) to 10 (complete remission). Criterion B (B1-B5, each rated as 0, 1 or 2 points) is used to establish whether there is a causal relationship between clinical improvement and the treatment. B1 and B2 indicate the recurrence risk off the lithium treatment [number (B1) and frequency (B2) of episodes]. B3 is a measure of the length of lithium treatment. B4 indicates compliance with lithium. B5 is a measure of concomitant psychotropic medication during periods of stability. The total score is obtained by subtracting the sum of the B scores from the A score.
as §1

[4] = 394 bipolar I patients under lithium prophylaxis, B5 = 2 (prolonged antidepressant and/or antipsychotic and/or mood stabilizer)

[Li] [lithium]
lithium blood levels [1]: ≥ 0.5 mM
Good response to treatment (A − B ≧ 6) ([2]; 394 bipolar I patients under lithium prophylaxis, B5 = 1 (low dose antidepressants and/or antipsychotics and/or prolonged sleep medication)): 124 (50.4) N(%)
Good response to treatment (A − B ≧ 6) [2, 4]: 5 (5.0) N(%)
Poor response to treatment (A − B < 6) [2, 4]: 96 (95.0) N(%)
Good response to treatment (A − B ≧ 6) ([2]; 394 bipolar I patients under lithium prophylaxis, additional medication B5 = 0 (none except infrequent sleep medication)): 30 (63.8) N(%)
Poor responders to treatment at cutoff 5/6 ([2]; study subjects with a B5 score of 2): 95.0%
total Alda score, range ([3]; carriers of the response alleles (N=16), good response): 8-10
A − B (total score of Alda Scale) ([3]; rs17026688 genotype CC): 3 (3×) and 2 (2×) and 0 (3×)
A − B (total score of Alda Scale) ([3]; rs17026688 genotype CT): 10 (5×) and 9 (6×) and 8
A − B (total score of Alda Scale) ([3]; rs17026688 genotype TT): 9
total Alda score, range ([3]; non-carriers (N=8), poor response): 0-3

Reference: US9797015B2, “Genetic variants associated with lithium response in bipolar disorder” (Academia Sinica, priority 2013, dated 2017)
